# Source: patent US11974987B2, “Monoacylglycerol lipase modulators for use in autism spectrum disorders” (Janssen Pharmaceutica NV, priority 2021, dated 2024)
# Like-named read-outs stand apart in the source and are kept apart here.
# Columns and labels:
# [1] = biological target: human MGL from HeLa cells (Homo sapiens (Human), UniProt Q99685); assay: in vitro MGL activity assay ([glycerol-1,3-3H]-oleoyl glycerol cleavage); assay type: biochemical
# Procedure: The assay consists of combining endogenously expressed MGL from HeLa cells with test compounds, adding [glycerol-1,3-^3H]-oleoyl glycerol, incubating for one hour, and then measuring the amount of cleaved [1,3-^3H]-glycerol that passes through an activated carbon filter. The amount of cleaved, tritiated glycerol passing through the carbon filter is proportional to the activity of the MGL enzyme in a particular well/test condition.
# Standard conditions for this assay combine 300 nM [Glycerol-1,3-^3H]-oleoyl glycerol with human MGL from HeLa cells and test compounds for one hour, after which the reaction is filtered through activated carbon and tritium is measured in the flow through. […] MGL is the predominant hydrolase in HeLa cells/cell homogenates.
# [2] = tested on: BTBR mice; assay: Three-chamber sociability test in BTBR mice (autism model); assay type: in vivo, mouse; conditions: 3 mg/kg p.o., 60 minutes before testing
# Procedure: (§1) Biological Example 3. The behavioral effects of the compound of Example 78 were evaluated using an animal model of autism in a sociability assay after administration of the compound. The sociability assay was conducted using C57BL/6J mice (commerically available from the Jackon Laboratory, Bar Harbor, ME) as control, and BTBR T^+ Itpr3^tf/mice (referred herein as “BTBR”)(commerically available from the Jackon Laboratory, Bar Harbor, ME) as an autism model.
# The BTBR mice used in Biological Example 3 was derived from the inbred strain BTBR (Black and Tan BRachyury) that carried the mutations a^t (nonagouti; black and tan), Itpr3^tf (inositol 1,4,5-triphosphate receptor 3; tufted), and T (brachyury). […] (Wahlsten D, 2003 Brain Res). […] (McFarlane H G, 2008, Gen, Brain Behav; Moy S S, 2007, Behav Br Res, Scattoni M L, 2008, PLos). This strain of mice contains the Trem2S148E allele—a naturally occurring variant at position 48351151-48351152 on Chr 17 (rs108080490 and rs107649577; Ensembl GRCm38.p6). This TC to GA transition results in a serine to glutamic acid substitution at amino acid 148 (S148E).
# (§2) Thirty (30) C57BL/6J female mice and thirty (30) BTBR female mice (7-8 weeks old) were used in Biological Example 3. Upon arrival, mice were group-housed (4-5/cage) and acclimated for at least 5 days prior to commencing studies. Animals were maintained on a 12 hr light/dark cycle with room temperature maintained at 22±2° C. and approximately 50% humidity and had access to food and water ad libitum until the day before the experiment.
# (§3) The two solutions listed in Table 4 were formulated fresh daily for p.o. administration. Both solutions comprise 20% 2-Hydroxypropyl-β-cyclodextrin (HP-3-CD). The solution containing Example 78 is in a concentration of 0.3 mg/mL.
# (§4) Each type of mice is divided into two different treatment groups: those orally administered a Vehicle solution, and those orally administered with a solution of Example 78, both prepared according to Table 4 above. The mice were randomly assigned to treatment groups according to Table 5 below. Mice were administered the test article 60 minutes prior to testing.
# (§5) Experiments were carried out in a gray plastic arena with two clear dividers creating three chambers (each 19 cm×45 cm). […] Two wire cup-like containers were placed in the corner of either end of the arena (right chamber and left chamber). These containers were used to house either stimulus or familiar mice. The arena was placed in a room with dim lighting (˜10 lux). Animals were brought into the room to acclimate for at least 1 hour prior to beginning experiment.
# Initially, empty wire cups are placed into the right and left chambers. Each of the C57BL/6J or BTBR mouse was placed into the center chamber and allowed to habituate for 10 minutes to the arena. After the 10-minute habituation and with the animal still in the arena, a first stimulus mouse, which was subsequently considered a familiar mouse, was placed inside one of the wire cups in either the right or left chamber. In the other wire cup, a small object was placed. The placement of the stimulus mouse and small object switched sides across subjects. The C57BL/6J or BTBR mouse was allowed 10 minutes to explore all three chambers. A second stimulus mouse was subsequently placed in the wire cup in the opposite chamber. The first stimulus mouse was considered as familiar mouse. Again, the C57BL/6J or BTBR mouse was allowed 10 minutes to explore all three chambers.
# During the latter 10-minute period, activity of each mouse was recorded and analyzed using the Noldus EthoVision™ software, which is a video tracking software that tracks and analyzes the behavior, movement. The following data were record and scored using activity of each mouse for:
# (1) Duration and number of direct/active contacts between the test mouse and both wire cups (stimulus vs. familiar); Active contact was defined as mouse stretching towards wire cup within a 3-5 mm area around the cup; and […]
# [3] = tested on: C57BL/6J mice; assay: Three-chamber sociability test in C57BL/6J mice (control); assay type: in vivo, mouse; conditions: C57BL/6 mice, 3 mg/kg p.o., 60 minutes before testing
# Procedure: as §1, §2, §3, §4, §5
# Initially, empty wire cups are placed into the right and left chambers. Each of the C57BL/6J or BTBR mouse was placed into the center chamber and allowed to habituate for 10 minutes to the arena. After the 10-minute habituation and with the animal still in the arena, a first stimulus mouse, which was subsequently considered a familiar mouse, was placed inside one of the wire cups in either the right or left chamber. In the other wire cup, a small object was placed. […]
# During the latter 10-minute period, activity of each mouse was recorded and analyzed using the Noldus EthoVision™ software, which is a video tracking software that tracks and analyzes the behavior, movement. The following data were record and scored using activity of each mouse for: […]
# Data were plotted and analyzed using GraphPad Prism (version 9.1.1) software. […]
# [4] = 300 nM [Glycerol-1,3-3H]-oleoyl glycerol, one hour, read-out: MGL IC50
# Chain of human MGL from HeLa cells (Q99685 whole entry): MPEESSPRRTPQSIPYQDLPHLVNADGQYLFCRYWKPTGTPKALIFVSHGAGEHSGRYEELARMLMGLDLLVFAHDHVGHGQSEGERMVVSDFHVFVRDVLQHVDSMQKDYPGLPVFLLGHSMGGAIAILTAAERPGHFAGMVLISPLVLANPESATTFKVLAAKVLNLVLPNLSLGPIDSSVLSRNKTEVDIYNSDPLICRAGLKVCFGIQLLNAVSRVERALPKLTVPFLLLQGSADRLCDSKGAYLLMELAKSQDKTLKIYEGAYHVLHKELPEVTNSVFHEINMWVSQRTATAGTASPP
structure (smiles),measurement,setting,value
"O=C1CC[C@]2(C[C@H](C(=O)N3CCC4(c5cccc(OC(F)(F)F)c5)CC4C3)C2)N1 (mixture of isomers) [Example 52, (rac)-(2r,4s)-2-(6-(3-(Trifluoromethoxy)phenyl)-3-azabicyclo[4.1.0]heptane-3-carbonyl)-5-azaspiro[3.4]octan-6-one]",IC50,[1],4.8 nM
"O=C1CC[C@]2(C[C@H](C(=O)N3CCC4(c5ccc(OC(F)(F)F)cc5)CC4C3)C2)N1 (mixture of isomers) [Example 55, (rac)-(2r,4s)-2-(6-(4-(Trifluoromethoxy)phenyl)-3-azabicyclo[4.1.0]heptane-3-carbonyl)-5-azaspiro[3.4]octan-6-one]",IC50,[1]; [4],10 nM
"O=C1CC[C@]2(C[C@H](C(=O)N3CCC4(c5ccc(C(F)(F)F)cc5)CC4C3)C2)N1 (mixture of isomers) [Example 59, (rac)-(2r,4s)-2-(6-(4-(Trifluoromethyl)phenyl)-3-azabicyclo[4.1.0]heptane-3-carbonyl)-5-azaspiro[3.4]octan-6-one]",IC50,[1]; [4],18 nM
"Cc1cccc([C@]23CCN(C(=O)[C@H]4C[C@]5(COC(=O)N5)C4)C[C@H]2C3)c1 (relative stereo) [Example 44, (2s,4*R)-2-((1*S,6*R)-6-(m-Tolyl)-3-azabicyclo[4.1.0]heptane-3-carbonyl)-7-oxa-5-azaspiro[3.4]octan-6-one]",IC50,[1]; [4],2.8 nM
"O=C1CC[C@]2(C[C@H](C(=O)N3CC[C@@]4(c5cccc(OC(F)(F)F)c5)C[C@H]4C3)C2)N1 (stereo in doubt) [Example 119, (2r,4*S)-2-((1*R,6*S)-6-(3-(Trifluoromethoxy)phenyl)-3-azabicyclo[4.1.0]heptane-3-carbonyl)-5-azaspiro[3.4]octan-6-one]",IC50,[1]; [4],5.2 nM
"O=C1CC[C@]2(C[C@H](C(=O)N3CC[C@]4(c5cccc(OC(F)(F)F)c5)C[C@@H]4C3)C2)N1 (stereo in doubt) [Example 120, (2r,4*R)-2-((1*S,6*R)-6-(3-(Trifluoromethoxy)phenyl)-3-azabicyclo[4.1.0]heptane-3-carbonyl)-5-azaspiro[3.4]octan-6-one]",IC50,[1]; [4],23 nM
"O=C1CC[C@]2(C[C@H](C(=O)N3CC[C@@]4(c5ccc(OC(F)(F)F)cc5)C[C@H]4C3)C2)N1 (stereo in doubt) [Example 121, (2r,4*S)-2-((1*R,6*S)-6-(4-(Trifluoromethoxy)phenyl)-3-azabicyclo[4.1.0]heptane-3-carbonyl)-5-azaspiro[3.4]octan-6-one]",IC50,[1]; [4],42 nM
"O=C1CC[C@]2(C[C@H](C(=O)N3CC[C@]4(c5ccc(OC(F)(F)F)cc5)C[C@@H]4C3)C2)N1 (stereo in doubt) [Example 122, (2r,4*R)-2-((1*S,6*R)-6-(4-(Trifluoromethoxy)phenyl)-3-azabicyclo[4.1.0]heptane-3-carbonyl)-5-azaspiro[3.4]octan-6-one]",IC50,[1]; [4],12 nM
"CC(C)(C)c1cccc([C@H]2[C@@H]3CN(C(=O)[C@H]4C[C@]5(COC(=O)N5)C4)C[C@@H]32)c1 [Example 78, (2s,4S)-2-((1R,5S,6S)-6-(3-(tert-Butyl)phenyl)-3-azabicyclo[3.1.0]hexane-3-carbonyl)-7-oxa-5-azaspiro[3.4]octan-6-one]","Mean Diff., amount of time spent exploring familiar mouse chamber and stimulus mouse chamber (Bonferroni's multiple comparisons test)",[2],−40.36
same,"Mean Diff., amount of time spent interacting with familiar mouse or stimulus mouse (Bonferroni's multiple comparisons test)",[2],−5.578
same,"Mean Diff., number of entries into familiar mouse chamber and stimulus mouse chamber (Bonferroni's multiple comparisons test)",[2],4.133
same,"Mean Diff., number of interactions with familiar mouse or stimulus mouse (Bonferroni's multiple comparisons test)",[2],−47.07
same,preference to familiar mouse over stimulus mouse (FIGS. 1C and 1D),[2],did not show preference to familiar mouse over stimulus mouse
same,social interaction (interest in social novelty) as compared to BTBR mice treated with placebo,[2],improved social interaction
same,"Mean Diff., amount of time spent exploring familiar mouse chamber and stimulus mouse chamber (Bonferroni's multiple comparisons test)",[3],−23.01
same,"Mean Diff., amount of time spent interacting with familiar mouse or stimulus mouse (Bonferroni's multiple comparisons test)",[3],2.873
same,"Mean Diff., number of entries into familiar mouse chamber and stimulus mouse chamber (Bonferroni's multiple comparisons test)",[3],8.133
same,"Mean Diff., number of interactions with familiar mouse or stimulus mouse (Bonferroni's multiple comparisons test)",[3],37.87
"CC(C)c1cccc([C@H]2[C@@H]3CN(C(=O)[C@H]4C[C@]5(COC(=O)N5)C4)C[C@@H]32)c1 [Example 84, (2s,4S)-2-((1R,5S,6S)-6-(3-Isopropylphenyl)-3-azabicyclo[3.1.0]hexane-3-carbonyl)-7-oxa-5-azaspiro[3.4]octan-6-one]",IC50,[1]; [4],5.5 nM
